Data published in PubChem BioAssay (NCI).
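In this assay, cells in 96-well plates receive the compound at five concentrations for 48 hours. Endpoints are linearly interpolated between the surrounding concentrations. Here, GI50 denotes the concentration required for 50% inhibition of growth. The concentration for full growth arrest is given as TGI.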

Tests used:
Assay in all cases: NCI anticancer screen, dose series, 48 h
OVCAR-8 ovarian = tested on: OVCAR-8 ovarian
KM12 colon = tested on: KM12 colon
MALME-3M melanoma = tested on: MALME-3M melanoma
SR leukemia = tested on: SR leukemia
HCT-116 colon = tested on: HCT-116 colon
CCRF-CEM leukemia = tested on: CCRF-CEM leukemia
SN12C renal = tested on: SN12C renal
SK-MEL-5 melanoma = tested on: SK-MEL-5 melanoma
COLO 205 colon = tested on: COLO 205 colon
OVCAR-4 ovarian = tested on: OVCAR-4 ovarian

SMILES	TGI (OVCAR-8 ovarian) [µM]	TGI (KM12 colon) [µM]	TGI (MALME-3M melanoma) [µM]	TGI (SR leukemia) [µM]	TGI (HCT-116 colon) [µM]	TGI (CCRF-CEM leukemia) [µM]	TGI (SN12C renal) [µM]	TGI (SK-MEL-5 melanoma) [µM]	TGI (COLO 205 colon) [µM]	TGI (OVCAR-4 ovarian) [µM]	GI50 (OVCAR-8 ovarian) [µM]	GI50 (SR leukemia) [µM]	GI50 (CCRF-CEM leukemia) [µM]	GI50 (SN12C renal) [µM]	GI50 (SK-MEL-5 melanoma) [µM]	GI50 (KM12 colon) [µM]	GI50 (OVCAR-4 ovarian) [µM]
COC(=O)[C@@H](NC(=O)c1ccc(CNC(=O)/C(C)=C/c2ccccc2)cc1)C(C)C	> 100	> 100	> 100	> 100	> 100	> 100	> 100	> 100	> 100	> 100	–	–	–	–	–	–	–
O=C(NCCCc1cn[nH]c(=O)n1)c1cccc2nc3ccccc3nc12	> 100	> 100	> 100	> 100	> 100	> 100	> 100	> 100	> 100	> 100	–	–	–	–	–	–	–
Nc1nc(N)c2nc(CNc3ccc(C(=O)NC(CCNC(=O)c4ccccc4C(=O)O)C(=O)O)cc3)cnc2n1 (stereo not given)	> 100	> 100	> 100	> 100	> 100	> 100	> 100	> 100	> 100	> 100	0.00813	0.00433	0.0065	0.102	0.0853	–	–
Cc1sc2nc3n(c(=O)c2c1C)N=C(c1ccccc1)CS3	> 100	> 100	> 100	> 100	> 100	> 100	> 100	> 100	> 100	> 100	–	–	–	–	–	–	–
Cc1cc2c(cc1-c1cc3c(cc1C)C(C(C)C)=C(O)C(=O)/C3=C\Nc1ccccn1)/C(=C/Nc1ccccn1)C(=O)C(O)=C2C(C)C	> 100	73.6	67.6	> 100	> 100	> 100	> 100	> 100	> 100	> 100	–	–	–	–	–	–	–
CCOC(=O)[C@H](CO)Nc1c(O)c2c(c(O)c1Cl)C(=O)C=CC2=O	> 10	> 10	> 10	> 10	> 10	> 10	> 10	> 10	> 10	> 10	–	–	–	–	–	–	–
O=C(CBr)NCCc1c[nH]c2ccccc12	> 48.3	3.85	9.41	1	3.15	0.552	2.65	2.46	3.19	4	–	–	–	–	–	–	–
COc1cc(CC2C(=O)OCC2[C@@H](OC(C)=O)c2ccc3c(c2)OCO3)c(Br)c(OC)c1OC (stereo not given in full)	> 100	> 100	> 100	> 100	> 100	> 100	> 100	> 100	> 100	> 100	–	–	–	–	–	–	–
COc1cc(/C=C/c2ccc(S(N)(=O)=O)cc2)cc(OC)c1	> 100	57.6	41.6	38	27.5	52.3	55.2	29.8	32.4	50.9	37.9	19.7	19.9	–	–	20.8	21.2
CCOP(=O)(OCC)C(C)(CC)/N=C(\N)NC#N (stereo not given)	> 100	> 100	> 100	> 100	> 100	> 100	> 100	> 100	> 100	> 100	–	–	–	–	–	–	–
COc1ccc(OC)c(-c2cc(=O)c3cc4c(cc3[nH]2)OCO4)c1	> 68.5	> 46	> 100	> 27.9	> 35.7	> 100	> 87.5	28	7.93	> 100	–	–	–	–	–	–	–
CC(C)(CO)NC(=O)c1cccs1	> 100	> 100	> 100	> 100	> 100	> 100	> 100	> 100	> 100	> 100	–	–	–	–	–	–	–
N#Cc1c(O)c(C=O)c(=O)n2c1[nH]c1ccccc12	> 100	> 100	> 100	> 100	> 100	> 100	> 100	> 100	> 100	> 100	–	–	–	–	–	–	–
C=C(C)[C@@H]1CCC2=C(CC[C@]3(C)[C@@H]([C@@H](CCC=C(C)C)C(=O)O)[C@H](O)C[C@@]23C)[C@@]1(C)CCC(=O)O	> 100	> 100	> 100	> 100	> 100	> 100	> 100	> 100	> 100	> 100	–	–	–	–	–	–	–
CC1(C)OC2[C@@H](CO[C@@]3([C@H]4OC(C)(C)O[C@@H]4CO)OC(C)(C)O[C@@H]23)O1 (stereo not given in full)	> 100	> 100	> 100	> 100	> 100	> 100	> 100	> 100	> 100	> 100	–	–	–	–	–	–	–
COC(=O)C1=C(C)NC2=C(C(=O)c3ccccc32)C1c1cn[nH]c1-c1ccccc1 (stereo not given)	> 100	> 100	> 100	87.4	> 100	> 100	> 100	> 100	52	> 100	–	–	–	–	–	–	–
O=C1NC2OC(CO)C(O)C(O)C2O1 (stereo not given)	> 100	> 100	> 100	> 100	> 100	> 100	> 100	> 100	> 100	> 100	–	–	–	–	–	–	–
Cc1csc2c(=O)n(COCc3ccccc3)c(=O)[nH]c12	> 100	> 100	> 100	> 100	> 100	> 100	> 100	> 100	> 100	> 100	–	–	–	–	–	–	–
N#CCN1CCCN(CC#N)CCN(CC#N)CCCN(CC#N)CC1	> 100	> 100	> 100	> 100	> 100	> 100	> 100	> 100	> 100	> 100	–	–	–	–	–	–	–
CN(C)CCCN=c1c2ccccc2n(C)c2[nH]c(=O)n(C)c(=O)c12	> 100	42.4	11	9.3	> 41.8	16.8	> 51.6	18.4	11.9	36.2	–	–	–	–	–	–	–
CC(=O)OC12OC(C)(C3C(=O)N(c4ccccc4)C(=O)C31)N(c1ccccc1)C2=O (stereo not given)	> 100	> 100	> 100	> 100	> 100	> 100	> 100	> 100	> 100	> 100	–	–	–	–	–	–	–
O=C1C(=Cc2ccc([N+](=O)[O-])o2)C(=O)N(CCc2ccccc2)S(=O)(=O)N1CCc1ccccc1	79.2	> 100	32	38.4	29.9	> 100	> 100	44.1	36.9	30	–	–	–	–	–	–	–
NCCN(CCN)/[N+]([O-])=N/O	> 100	> 100	> 100	> 100	> 100	> 100	> 100	> 100	> 100	> 100	–	–	–	–	–	–	–
COc1ccc(/C=C(\C2=NC(=O)CS2)c2nc3ccccc3[nH]2)cc1	> 100	> 100	> 100	> 100	> 100	> 100	> 100	> 100	> 100	> 100	–	–	–	–	–	–	–
COc1cc(CC(=O)c2cc3c(cc2-c2ccccc2)OCO3)cc(OC)c1OC	> 100	> 100	> 100	72.3	> 100	> 100	> 100	27.1	> 100	> 100	–	–	–	–	–	–	–
CC(=O)Nc1ccc(C(=O)n2[nH]c(C)c(/C=C3\C(=O)C=Cc4ccccc43)c2=O)cc1	> 100	> 100	59.3	> 100	> 100	> 100	> 100	> 100	> 100	> 100	–	–	–	–	–	–	–
Cc1cc(=O)[nH]c(NNC(C#N)c2ccc(N(C)C)cc2)n1 (stereo not given)	> 100	> 100	> 100	> 100	> 100	> 100	> 100	> 100	> 100	> 100	–	–	–	–	–	–	–
